For data set [1], the system named is Hep G2. Briefly: killing of cultured cells, Hep G2. Type of data set: cell-based. Also noted: key to cells killed by treatment: “+” indicates that the cells were killed by treatment; “−” indicates that they were not; “+/−” indicates a slow marginal response seen only in a few special cases with fibroblasts experimentally transformed by introduction of the ras oncogene. The following applies: Hep G2; compound at two to fourfold above its threshold killing concentration. The source says:
(§1) Table 1: Summarized are the responses of cells in culture to killing by example members of the family of blocked lipoate derivatives that are the object of this invention as well as one control compound (dihydroxyoctanoic acid). At right is indicated the specific cell line followed by the tissue of origin of the cell line. Across the top are listed the specific compounds tested. Each blocked lipoate derivative was used at two to fourfold above its threshold killing concentration. [These concentrations range form 0.15 mM (60 ug/ml or 60 mg/kg) to 2.5 mM (800 ug/ml or 800 mg/kg) (see EXAMPLE 11).] […] “+/−” indicates a slow marginal response seen only in a few special cases with fibroblasts experimentally transformed by introduction of the ras oncogene (EXAMPLE 10).
(§2) First, each cell type to be tested was plated at low densities in the wells of a standard 6×24 well tissue culture plate. (Multiple wells are seeded for each cell type.)
(§3) Second, the cells were allowed to grow to moderate densities. Transformed cells are in contact and non-transformed cells are contact-inhibited under these conditions.
(§4) Third, the lipoate derivatives to be tested were added to individual wells. In these experiments each compound was added at two to fourfold above the threshold killing concentration for cancer cells (EXAMPLE 11).
(§5) Fourth, cells were monitored over the next several days.

The subject of data set [2] is B16 (Skin). The experiment in a line: killing of cultured cells, B16. The data set is classed as cell-based. Also noted: key: “+” indicates that the cells were killed by treatment; “−” indicates that they were not; “+/−” indicates a slow marginal response seen only in a few special cases with fibroblasts experimentally transformed by introduction of the ras oncogene. The note with it: compound at two to fourfold above its threshold killing concentration.
Excerpt: as §1, §2, §3, §4, §5

The subject of data set [3] is Saos 2 (Bone). Briefly: killing of cultured cells, Saos 2. The data set is classed as cell-based. On the set-up: key: “+” indicates that the cells were killed by treatment; “−” indicates that they were not; “+/−” indicates a slow marginal response seen only in a few special cases with fibroblasts experimentally transformed by introduction of the ras oncogene. The following applies: compound at two to fourfold above its threshold killing concentration.
Excerpt: as §1, §2, §3, §4, §5

Data set [4] relates to HeLa (Cervix). The experiment in a line: killing of cultured cells, HeLa. Also noted: key to cells killed by treatment: “+” indicates that the cells were killed by treatment; “−” indicates that they were not; “+/−” indicates a slow marginal response seen only in a few special cases with fibroblasts experimentally transformed by introduction of the ras oncogene. The data set is classed as cell-based. The note with it: Cervix, compound at two to fourfold above its threshold killing concentration.
Excerpt: as §1, §2, §3, §4, §5

Data set [5] deals with SW480 (Colon). The experiment in a line: killing of cultured cells, SW480. The data set is classed as cell-based. Also noted: key: “+” indicates that the cells were killed by treatment; “−” indicates that they were not; “+/−” indicates a slow marginal response seen only in a few special cases with fibroblasts experimentally transformed by introduction of the ras oncogene. The following applies: compound at two to fourfold above its threshold killing concentration.
Excerpt: as §1, §2, §3, §4, §5

The test system of data set [6] is RD (Embryo). Briefly: killing of cultured cells, RD. Type of data set: cell-based. On the set-up: key to cells killed by treatment: “+” indicates that the cells were killed by treatment; “−” indicates that they were not; “+/−” indicates a slow marginal response seen only in a few special cases with fibroblasts experimentally transformed by introduction of the ras oncogene. The following applies: RD, Embryo; compound at two to fourfold above its threshold killing concentration.
Excerpt: as §1, §2, §3, §4, §5

Data set [7] concerns LnCap (Prostate). Briefly: killing of cultured cells, LnCap. Type of data set: cell-based. On the set-up: key: “+” indicates that the cells were killed by treatment; “−” indicates that they were not; “+/−” indicates a slow marginal response seen only in a few special cases with fibroblasts experimentally transformed by introduction of the ras oncogene. The note with it: compound at two to fourfold above its threshold killing concentration.
Excerpt: as §1, §2, §3, §4, §5

Data set [8] deals with MCF 7 (Breast). Briefly: killing of cultured cells, MCF 7. The data set is classed as cell-based. On the set-up: key: “+” indicates that the cells were killed by treatment; “−” indicates that they were not; “+/−” indicates a slow marginal response seen only in a few special cases with fibroblasts experimentally transformed by introduction of the ras oncogene. The following applies: compound at two to fourfold above its threshold killing concentration.
Excerpt: as §1, §2, §3, §4, §5

In data set [9] the test system is A549 (Lung). Briefly: killing of cultured cells, A549. On the set-up: key to cells killed by treatment: “+” indicates that the cells were killed by treatment; “−” indicates that they were not; “+/−” indicates a slow marginal response seen only in a few special cases with fibroblasts experimentally transformed by introduction of the ras oncogene. The data set is classed as cell-based. The note with it: A549, Lung; compound at two to fourfold above its threshold killing concentration.
Excerpt: as §1, §2, §3, §4, §5

The subject of data set [10] is cancer cells in culture. Briefly: threshold killing concentration and dose response in cultured cells. The data set is classed as cell-based. The following applies: for threshold killing concentration: approximate center of a range extending two to threefold. An excerpt:
First, each compound killed cancer cells in culture at or above a relatively narrow, specific concentration range, but not below. The threshold concentrations given below represent the approximate center of this range which extended roughly two to threefold. […] Below these saturation ranges, sensitive cells survived and grew. They could be removed and replated to grow, apparently indefinitely, under these conditions. […] This was a highly unusual dose/response profile. The threshold killing concentrations (ranges) varied between individual compounds. Examples of these threshold killing concentrations were as follows: bis-benzoyl lipoate (EXAMPLE 3) 60 mg/liter (60 mg/kg), monoacetyl lipoate (EXAMPLE 4) 100 mg/liter (100 mg/kg); bis-acetyl lipoate (EXAMPLE 2) 600 mg/liter (600 mg/kg).
These changes were ultimately followed by cell death if treatment was continued. However, these morphological changes were reversed, and the cells recovered, if the lipoate derivative was removed during this initial exposure. As with the dose/response profile of the preceeding paragraph, this reversible induction of morphological change followed by commitment to cell death is highly idiosyncratic. The discovery that this behavior was shown by all tested members of the class of compounds that are the object of this invention was, again, very strong evidence that these compounds are, in fact, a functionally coherent class.

In data set [11] the test system is HeLa cells. Briefly: killing of HeLa cells with or without dichloroacetate (DCA). The note with it: compound ca. twofold above threshold killing dose plus 5 mM DCA. The data set is classed as cell-based. The protocol:
HeLa cells were plated at moderate densities and allowed to attach and grow for ca. 24 hours in a series of wells in a multi-well tissue culture plate. To individual wells of the first subset (control) were added bis-acetyl lipoate, mono-acetyl lipoate or bis-benzoyl lipoate—each at ca. twofold above the threshold killing dose (EXAMPLE 11). To an equivalent (experimental) subset of wells were added these same compounds at the same dose together with the simultaneous addition of DCA to 5 mM final concentration.

Data set [12] concerns NIH 3T3 ras transformed. The experiment in a line: killing of cultured cells, ras-transformed NIH 3T3 (T24). The data set is classed as cell-based. On the set-up: key to cells killed by treatment: “+” indicates that the cells were killed by treatment; “−” indicates that they were not; “+/−” indicates a slow marginal response seen only in a few special cases with fibroblasts experimentally transformed by introduction of the ras oncogene. The following applies: NIH 3T3 ras transformed; compound at two to fourfold above its threshold killing concentration.
Excerpt: as §1, §2, §3, §4, §5
NIH-3T3 cells are relatively normal, noncancerous cells. However, if an activated allele of the ras oncogene is introduced into these cells they become highly malignant (cancerous) as assessed by several assays (REFERENCE).

Data set [13] can be described thus: nonspecific toxicity by intraperitoneal injection. The following applies: C57/BL, mouse, in vivo, ip. On the procedure:
(§6) (All studies described in this section were carried out by intraperitoneal (IP) injection into C57/BL mice.)

Data set [14] relates to C57/BL mice. Briefly: nonspecific toxicity by intraperitoneal injection. The note with it: mouse, in vivo, ip. The protocol:
as §6

For data set [15], the system named is B-16 melanoma. The experiment in a line: B-16 system, subcutaneous tumors. The data set is classed as in vivo, mouse. The note with it: 100 mg/kg twice daily, started at tumors ca. 3-5 mm. The source says: The B-16 melanoma strain was introduced either subcutaneously or intraperitoneally into individuals of the C57/BL syngeneic mouse strain (7). When left untreated such mice develop massive tumors in the immediate area of injection as well as secondary metastases throughout the animal—including in the liver and the lungs. These malignant growths result in the early death of the animals. Moreover, the resulting malignant growths are made up of darkly pigmented malignant melanocytes—making their assessment convenient and highly reliable. We will henceforth refer to this as the “B-16 system”.
Second, a group of animals were injected at a subcutaneous site with B-16 cells. […] As this time, one group oL animals (experimentals) began a twice-daily series of injections of the bis-acetyl lipoate derivative (100 mg/kg in 100 ul of isotonic saline) and a second set (controls) of corresponding injections of the saline solvent alone. [See EXAMPLES 2, 8 and 11 for the details of bis-acetyl lipoate derivative.]
Third, in several animals subcutaneous tumors were produced as in the preceding paragraph. After the tumors had grown to visible, palpable size, these animals received both a twice daily IP (systemic) dose of 50 mg/kg of bis-benzoyl lipoate as well as a twice daily direct injection a second dose of the same volume directly into the tumor mass.

In general, LD50 refers to the dose expected to kill half of the subjects tested.

In the case of `NC(=O)CSCCC(CCCCC(=O)O)SCC(N)=O` (centres unmarked) [bis carbamoyl lipoate, 6,8-Biscarbamoylmethylmercaptooctanoic acid], in data set [1], the “cells killed by treatment” value is recorded as “+”.

With `CN1C(=O)CC(SCCC(CCCCC(=O)O)SC2CC(=O)N(C)C2=O)C1=O` (stereo not drawn) [bis methyl sucimimido lipoate, 6,8-Bis-[S-(N-methylsuccinimido)]mercaptooctanoic acid], the “cells killed by treatment” value in data set [2], in [3], in data set [4], in [5], in data set [6] and in data set [7] was “+” throughout. The “cells killed by treatment” value in [8], in data set [9] and in [1] was “+” each time.

With `CC(=O)SCCC(CCCCC(=O)O)SC(C)=O` (centres unmarked) [bis-acetyl lipoate, 6,8-bisacetylmercaptooctanoic acid], the “cells killed by treatment” value in [2] is listed as “+”; in data set [12], “+/−”; in data set [3] it was “+”; in [4], “+”; in [5], “+”; in [6], “+”. In addition, the “cells killed by treatment” value in data set [7], in data set [8], in data set [9] and in data set [1] was “+” in each case. In data set [10], the threshold killing concentration was 600 mg/L. Moreover, the “speed of cell killing with DCA relative to compound alone” value in [11] is “approximately twvice as rapidly”. The same compound displayed a median lethal dose (LD50) in data set [13] of around 500 mg/kg. Moreover, in data set [14], the maximum well-tolerated dose entry was “ca. 200 mg/kg”. Moreover, the “response of subcutaneous tumor” value in data set [15] was “palpable softening and apparently partial liquification of the tumor mass followed by a stabilization or a reduction in size”.

Take `O=C([O-])CCCCC(O)CCO.[Na+]` (centres unmarked) [dihydroxy octanoic acid, Sodium 6,8-Dihydroxyoctanoate, reference compound]: the “effect on cells in culture” value in [10] (tested up to 5 mM (3200 ug/ml), cell lines of Table 1) was “without detectable effect”.

For `CC(=O)SCCC(S)CCCCC(=O)O` (centres unmarked) [monoacetyl lipoate, 8-acetylmercapto-6-mercaptooctanoic acid], the “cells killed by treatment” value in data set [2], in [12], in data set [3], in data set [4], in data set [5] and in data set [6] was “+” in each case. For the same compound, the “cells killed by treatment” value in data set [7], in [8], in data set [9] and in [1] was “+” each time. This compound came in with a threshold killing concentration in data set [10] of 100 mg/L. Further, in data set [11], the “speed of cell killing with DCA relative to compound alone” value is given as “approximately twvice as rapidly”.

Values taken from US6951887B2 (The Research Foundation of State University of New York, priority 1998, dated 2005).
